Data set [1] can be described thus: Solution stability of didanosine as a function of pH (stomach degradation model, Acid Neutralization Rate Test). It counts as physicochemical. To be noted: water with hcl; pH 5, 37° C., 1/2 hour.
For data set [2] the following is noted: 37° C., cited from earlier work.

The structures appear in SMILES notation. Like-named read-outs stand apart in the source and are kept apart here.

The compound `OC[C@@H]1CC[C@H](n2cnc3c(O)ncnc32)O1` [Didanosine, 2',3'-Dideoxyinosine] came in with a degraded at 0.5 h in data set [1] below 4%. Besides, the t90 in data set [2] (pH 7.4) is 16 days; in data set [2] (pH 9.5), 509 days; in data set [2] (pH <3), below 0.0014 days.

The values above are taken from patent US5880106A, “Oral dosing formulations of dideoxy purine nucleosides” (Bristol-Myers Squibb Company, priority 1997, dated 1999).
